Columns and labels:
[1] = test system: Balb/c mice; experiment: Cytokines in BALF of OVA-sensitized and challenged mice (ELISA); type: in vivo, mouse; details: i.t. treatment day 27 (20 ng MALP-2, 10^4 U IFN-γ); 24 h after last allergen challenge
Procedure: Female Balb/c mice (Charles River, Sulzfeld, Germany) were used at the age of 6-8 weeks In all experiments. They were fed with ovalbumin-free laboratory food and tap water ad libitum and held in a regular 12 h dark/light cycle at a temperature of 22° C. Before experimental start, mice were acclimated for a period of 7 days.
(§1) Animals were sensitized and challenged as previously described (Glaab, T., A. Daser, A. Braun, U. Neuhaus-Steinmetz, H. Fabel, Y. Alarie, and H. Renz. 2001. Am. J. Physiol Lung Cell Mol. Physiol 280:L565-L573). Briefly, 10 μg ovalbumin (OVA, grade VI, Sigma, Müchen, Germany) was adsorbed to 1 mg Imject Alum (Pierce, Rockford, USA) in a total volume of 200 μl 0.9% NaCl solution and intraperitonealy injected three times on days 0, 14 and 21. Negative controls were injected with the solution lacking ovalbumin. All groups were subjected to inhalative allergen challenge on days 28 and 29. OVA-aerosols (grade V, Sigma) with a mean mass diameter of 1.49 μm were generated from a solution of 1 mg/ml OVA in 0.9% NaCl using a modified Pad Master system (Pari Werke, Sternberg, Germany) for 20 min. A lung deposition of approximately 8 μg OVA per mice in each session was calculated by a respiratory minute volume of 35 ml/min an a deposition factor of 0.15 as brought forward by Raabe et al. (Raabe, O. G., J. E. Bennick, M. E. Light, C. H. Hobbs, R. L. Thomas, and M. I. Tillery. 1973. Toxicol. Appl. Pharmacol. 26:264-273). 3 gives the test groups.
(§2) The trachea was canulated under direct vision, and a total volume of 50 μl containing the substances was instillated using a syringe.
(§3) Mice were killed with an i.p. injected overdose of pentobarbital-Na (Menial, Halbergmoos, Germany) after the lung function. In a satellite group, mice were left untouched after the last allergen challenge and kept for another 7 days. Afterwards, they were dissected in the same way as the main groups as follows. Blood was obtained via punction of the vena cava. Red blood cells were lysed by incubation with 0.9% NH4Cl (Sigma) in H2O for 10 min, white blood cells were automatically counted using an AcT8 counter (Beckman Coulter, Krefeld, Germany) and cytospins were prepared for differential cell count. The trachea was canulated and broncho-alveolar lavage (BAL) was performed with 0.8 ml ice cold saline two times. BAL cells were separated by centrifugation, counted and cytospins were prepared as described above. The BAL fluid (BALF) was aliquoted, shock frozen in liquid nitrogen and stored at −80° C. until the determination of cytokines. After BAL, the lungs were filled with Tissue-Tek O.C.T. (Sakura Finetek, Zoeterwoude, Netherlands) diluted 1:2 in PBS and the trachea was ligated. Next, the right lungs were excised, subsequently shock frozen in liquid nitrogen and stored at −80° C. for histology.
Duo-Set ELISA kits for the detection of IL-4, IL-5, IL-13 and IL-12p70 in the BAL supernatant were used (R&D Systems, Wiesbaden, Germany) according to the manufacturer's instructions.

[2] = test system: Balb/c mice; experiment: Differential cell count of BAL and blood, OVA-sensitized mice; type: in vivo, mouse; details: i.t. treatment day 27; 24 h after last allergen challenge
Procedure: as §1, §2, §3
Cytospins were stained applying the Pappenheim method according to standard protocols. […] 300 cells of each sample were determined, and absolute counts of macrophages, lymphocytes, eosinophilic and neutrophilic granulocytes were calculated.

[3] = test system: autologous lymphocytes; details: DC treated in vitro; Weigt et al. 2003; cited from earlier work
[4] = test system: autologous lymphocytes; experiment: Proliferation assay (3H-thymidine) in coculture of DC and autologous lymphocytes; type: cell-based, human; details: DC of allergics, allergen pulsed, 3H-thymidine day 12 for 18 hours
Procedure: (§4) A portion of DC was used for coculture experiments with autologous lymphocytes from day 7 to day 13. To remove free stimulants, DC were harvested and washed twice. The cells were titrated in fresh medium in fresh round-bottom microtiterplates. 1×10^5 vital cryopreserved autologous lymphocytes were added at ratios of DC to lymphocytes from 1:3 to 1:2187 in a final volume of 200 μl in serum-free XVIVO-15. No further stimulants were given.
The coculture was pulsed with 5 μCi/ml ^3H-thymidine (Amersham Buchler, Braunschweig, Germany) on day 12. After 18 hours, the cells were harvested on filtermats (Canberra-Packard, Dreieich, Germany). After drying, 20 μl of liquid scintillator (Can berra-Packard) were added and the plates were sealed. Counts per minute were determined on a Topcount Microplate Scintillation Counter (Can berra-Packard).

[5] = test system: Balb/c mice; experiment: Lung function measurement: airway hyperreactivity to methacholine, head-out body plethysmography; type: in vivo, mouse; details: OVA-sensitized mice, 72 h after i.t. treatment, 24 h after last allergen challenge; mean±SEM
Procedure: as §1, with “OVA-aerosols (grade V, Sigma) with a mean mass diameter of 1.49 μm were generated from a solution of 1 mg/ml OVA in 0.9% NaCl using a modified Pad Master system (Pari Werke, Sternberg, Germany) for 20 min.” left out, “3 gives the test groups.” left out
24 hours after the last allergen challenge, airway hyperreactivity to methacholine (Mch) was determined in non-anaesthesized spontaneously breathing animals using head-out body plethysmography, as described before (Glaab, T., A. Daser, A. Braun, U. Neuhaus-Steinmetz, H. Fabel, Y. Alarie, and H. Renz. 2001. Am. J. Physiol Lung Cell Mol. Physiol 280:L565-L573). […] Respiratory signals were analyzed using the Hem 3.4 system (Notocord systems S. A., Crossy-sur-Seine, F).

[6] = test system: monocyte derived DC; experiment: Cytokines in DC culture supernatant (ELISA); type: cell-based, human; details: day 7 of culture; for IL-10 production in DC culture supernatant / IL-12p70 production in DC culture supernatant: compared to untreated DC
Procedure: (§5) Monocyte derived DC were generated as previously described (Weigt et al. Immunobiol. 207, 223-233 (2003). Briefly, blood was centrifuged to remove platelets, diluted and layered over Ficoll-Paque (Amersham Pharmacia, Uppsala, Sweden). After density gradient centrifugation, PBMC were collected, and monocytes were enriched using the MACS system and anti-CD14 beads (Miltenyi Biotec, Bergisch Gladbach, Germany). The CD14 positive fraction (monocytes) was cultured in the serum-free medium X-VIVO 15 supplemented with 100 U/ml penicillin and […] streptomycin (all BioWhittaker, Verviers, Belgium). The CD14 negative fraction containing the lymphocytes was cryopreserved in 90% FCS (GIBCO, Eggenstein-Leopoldhafen, Germany) and 10% DMSO (SIGMA, Taufkirchen, Germany). On day 1 and day 5 after isolation, 800 U/m of recombinant GM-CSF and 500 U/ml of recombinant IL-4 (Strathmann Biotec, Hamburg, Germany) were added to the monocyte culture to induce DC.
(§6) On day 5 of the culture, DC were pulsed with affinity purified house dust mite allergen adjusted to a concentration of 100 ng/ml of DerP1 or with PBS as control. […] The respective optimal concentrations were experimentally determined using the highest expression of stimulatory cell surface molecules as read-out system. The substances were incubated on the cells for 48 hours.
(§7) Cytokine concentrations were determined in DC culture supernatant collected on day 7 (TNF-α, IL-10, IL-12) and in the supernatant of the coculture of DC and autologous lymphocytes collected on day 10 (IFN-γ, IL-4). Duo-Set ELISA kits for the detection of IL-12p70, IL-10, TNF, IFN-γ, IL-4 and IL-5 were purchased (R&D Systems, Wiesbaden, Germany) and performed according to the manufacturers instructions.

[7] = test system: autologous lymphocytes; experiment: Cytokines in coculture of pretreated DC with autologous lymphocytes (ELISA); type: cell-based, human; details: for IFN-g in coculture supernatant / IL-4 in coculture supernatant: DC:lymphocytes 1:3; for IFN-g concentration in coculture supernatant / IL-4 concentration in coculture supernatant: DerP1 pulsed DC, day 3 of coculture
Procedure: as §6, §7, §4

[8] = test system: monocyte derived DC; experiment: Flow cytometric analysis of DC surface molecules; type: cell-based, human; details: for Surface expression of CD80, CD86, CD40, HLA-DR, CD83 on DC: immature DC of allergics, 48 h incubation
Procedure: as §5, §6
For immunophenotyping, an aliquot of DC was harvested after 7 days of culture and washed in PBS supplemented with 0.5% FCS and 10 mM NaN3 (SIGMA, Taufkirchen, Germany). After 30-minute-incubation at 4° C. with one of the following combination of labeled murine mAbs (isotype control FITC/isotype control PE, anti-CD83 FITC, anti-CD86 FITC/anti-CD40 PE, anti-CD 80 FITC/anti-HLA-DR PE, anti-CD1a FITC/anti-CD14 PE (all BD Biosciences, Heidelberg, Germany)) cells were washed and analysed on a EPICS XL-MCL (Beckmann Coulter, Krefeld, Germany) flow cytometer. Data were processed with the Expo 32 cytometer software (Beckmann Coulter). The expression of the cell surface molecules was shown in 1 parameter Histograms (FIG. 2) or evaluated using the median of fluorescence intensity (MFI) after subtraction of the values of the isotype control (Tab. 1).

[9] = allergic donors, pretreated DC:lymphocytes 1:3, mean±SEM of 6 experiments
[10] = DC of allergics, 48 h treatment, DerP1 100 ng/ml, MALP-2 100 pg/ml, IFN-g 5000 U/ml, mean±SEM of 6 experiments

Row | Molecule | IL-4 in BALF [1] | IL-5 and IL-13 in BALF [1] | IL-12p70 in BALF [1] | Eosinophils in BAL [2] | Number of BAL lymphocytes [2] | Lymphocyte proliferation [4] | ED50: concentration of Mch needed to decrease the EF50 to 50% of baseline [5] [mg/ml Mch] | TNF production in DC culture supernatant [6] | IL-10 production in DC culture supernatant [6] | IL-12p70 production in DC culture supernatant [6] | IFN-g in coculture supernatant ([7]; allergic donors) | IL-4 in coculture supernatant ([7]; allergic donors) | Surface expression of CD80, CD86, CD40, HLA-DR, CD83 on DC [8] | also measured
1 | macrophage activating lipopeptide-2 [MALP-2, reference compound] | reduce all Th2-markers to the level of the unsensitized negative control | reduce all Th2-markers to the level of the unsensitized negative control | did not amplify IL-12p70 | raised the eosinophil counts even further | increased | exceeded by MALP-2 | 20.13±1.36 | comparable moderate release | induced IL-10 | no effect on IL-12 | lowered IFN-g less compared to allergen pulsed DC | reduced IL-4 to control levels | significantly upregulated CD 40, CD 80, CD 83 and CD86 | Polarization of lymphocytes into T-helper (Th-1) cells [3]: no significant polarization; Proliferation of autologous lymphocytes [3]: marked proliferation
2 | IFN-γ: interferon gamma, IFNγ receptor agonist (Strathmann Biotec) | did not affect IL-4 | reduced the levels of IL-5 and IL-13 | failed to induce IL-12p70 | raised the eosinophil counts even further | increased | increased proliferation | 17.67±3.05 | comparable moderate release | did not influence | did not influence | heightened lymphopcyte IFN-g production | little effect on IL-4 | upregulated only HLA-DR | –
3 | DerP1: affinity purified major allergen of the house-dust mite Dermatophagoides pteronyssinus (protein, UniProt P08176 99-320, looked up) Peptidase 1: TNACSINGNAPAEIDLRQMRTVTPIRMQGGCGSCWAFSGVAATESAYLAYRNQSLDLAEQELVDCASQHGCHGDTIPRGIEYIQHNGVVQESYYRYVAREQSCRRPNAQRFGISNYCQIYPPNVNKIREALAQTHSAIAVIIGIKDLDAFRHYDGRTIIQRDNGYQPNYHAVNIVGYSNAQGVDYWIVRNSWDTNWGDNGYGYFAANIDLMMIEEYPYVVIL | – | – | – | – | – | only a very weak effect on lymphocyte proliferation | – | low levels | did not influence | did not influence | reduction of IFN-g | increase in IL-4 | no effect on the expression of the surface molecules | IFN-γ production in coculture [7, 9]: 3.6 +/− 2.1; IL-4 production in coculture [7, 9]: 13.6 +/− 7.3; IFN-g concentration in coculture supernatant ([7]; allergics, ±SEM): 3.6 pg/mL; IL-4 concentration in coculture supernatant ([7]; allergics, ±SEM): 13.6 pg/m; IL-4 concentration in coculture supernatant ([7]; healthy donors): below the detection limit; IFN-g concentration in coculture supernatant ([7]; non-allergics (healthy donors), ±SEM): 8.7 pg/m; CD1a median fluorescence intensity [8, 10]: 265.2 +/− 106.8; CD 14 median fluorescence intensity [8, 10]: 17.6 +/− 9.8; CD 40 median fluorescence intensity [8, 10]: 733 +/− 160.5; CD 80 median fluorescence intensity [8, 10]: 47.2 +/− 18.9; CD 83 median fluorescence intensity [8, 10]: 47.3 +/− 9^; CD 86 median fluorescence intensity [8, 10]: 159.8 +/− 29.3; HLA-DR median fluorescence intensity [8, 10]: 426.9 +/− 131.9
